Test results from ChEMBL document CHEMBL1201861, “Genomics of Drug Sensitity in Cancer screening data, Wellcome Trust Sanger Institute”.

Assays:
Test in all cases: cells
[1] = system: DMS-114; assay type: functional, cell-based, Homo sapiens; settings: Homo sapiens, DMS-114
[2] = system: DSH1; assay type: functional, cell-based, Homo sapiens; settings: Homo sapiens, DSH1;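 further: growth inhibition of human DSH1 cells, measured with a cell viability readout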
Description: SANGER: Inhibition of human DSH1 cell growth in a cell viability assay.

[3] = system: ES4; assay type: functional, cell-based, Homo sapiens; settings: Homo sapiens, ES4;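 further: growth inhibition of human ES4 cells, read out by a cell viability assay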
Description: SANGER: Inhibition of human ES4 cell growth in a cell viability assay.

[4] = system: ES7; assay type: functional, cell-based, Homo sapiens; settings: Homo sapiens, ES7;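 further: growth inhibition of cultured human ES7 cells, read out as cell viability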
Description: SANGER: Inhibition of human ES7 cell growth in a cell viability assay.

[5] = system: HCT-116; assay type: functional, cell-based, Homo sapiens; settings: Homo sapiens, HCT-116
Description: SANGER: Inhibition of human HCT-116 cell growth in a cell viability assay.

[6] = system: HN; assay type: functional, cell-based, Homo sapiens; settings: Homo sapiens, HN
Description: SANGER: Inhibition of human HN cell growth in a cell viability assay.

[7] = system: HT-1080; assay type: functional, cell-based, Homo sapiens; settings: Homo sapiens, HT-1080
Description: SANGER: Inhibition of human HT-1080 cell growth in a cell viability assay.

[8] = system: HuCCT-1; assay type: functional, cell-based, Homo sapiens, HuCCT1; settings: Homo sapiens, HuCCT-1;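 further: growth inhibition of HuCCT-1 cells, read out by a cell viability assay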
Description: SANGER: Inhibition of human HuCCT1 cell growth in a cell viability assay.

[9] = system: JEG-3; assay type: functional, cell-based, Homo sapiens; settings: Homo sapiens, JEG-3;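 further: growth inhibition of human JEG-3 cells, read out with a cell viability assay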
Description: SANGER: Inhibition of human JEG-3 cell growth in a cell viability assay.

[10] = system: KALS-1; assay type: functional, cell-based, Homo sapiens; settings: Homo sapiens, KALS-1;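 further: growth inhibition of KALS-1 cells, determined with a cell viability assay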
Description: SANGER: Inhibition of human KALS-1 cell growth in a cell viability assay.

[11] = system: KM12; assay type: functional, cell-based, Homo sapiens; settings: Homo sapiens, KM12;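 further: KM12 cell growth inhibition, read out with a cell viability assay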
Description: SANGER: Inhibition of human KM12 cell growth in a cell viability assay.

[12] = system: KYSE-150 cell line; assay type: functional, cell-based, Homo sapiens; settings: Homo sapiens, KYSE-150;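 further: growth inhibition of human KYSE-150 cells, read out with a cell viability assay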
Description: SANGER: Inhibition of human KYSE-150 cell growth in a cell viability assay.

[13] = system: L-428; assay type: functional, cell-based; settings: Homo sapiens
Description: SANGER: Inhibition of human L-428 cell growth in a cell viability assay.

[14] = system: LB2241-RCC; assay type: functional, cell-based, Homo sapiens; settings: Homo sapiens, LB2241-RCC;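 further: cell viability assay measuring how strongly the cultured human renal carcinoma line is prevented from growing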
Description: SANGER: Inhibition of human LB2241-RCC cell growth in a cell viability assay.

[15] = system: LOX IMVI; assay type: functional, cell-based; settings: Homo sapiens
Description: SANGER: Inhibition of human LOXIMVI cell growth in a cell viability assay.

[16] = system: Lu-65; assay type: functional, cell-based; settings: Homo sapiens;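 further: growth inhibition of Lu-65 cancer cells, read out by a cell viability assay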
Description: SANGER: Inhibition of human LU-65 cell growth in a cell viability assay.

[17] = system: M14; assay type: functional, cell-based, Homo sapiens; settings: Homo sapiens, M14;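 further: growth inhibition of M14 cells, read out with a cell viability assay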
Description: SANGER: Inhibition of human M14 cell growth in a cell viability assay.

[18] = system: MDA-MB-157; assay type: functional, cell-based, Homo sapiens; settings: Homo sapiens, MDA-MB-157
Description: SANGER: Inhibition of human MDA-MB-157 cell growth in a cell viability assay.

[19] = system: MFE-280; assay type: functional, cell-based, Homo sapiens; settings: Homo sapiens, MFE-280;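 further: growth inhibition of MFE-280 cells, determined with a cell viability readout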
Description: SANGER: Inhibition of human MFE-280 cell growth in a cell viability assay.

[20] = system: MHH-PREB-1; assay type: functional, cell-based; settings: Homo sapiens;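 further: cell viability assay measuring inhibition of proliferation of human MHH-PREB-1 cells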
Description: SANGER: Inhibition of human MHH-PREB-1 cell growth in a cell viability assay.

[21] = system: MZ2-MEL; assay type: functional, cell-based, Homo sapiens; settings: Homo sapiens, MZ2-MEL;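 further: growth inhibition of MZ2-MEL cells read out with a cell viability assay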
Description: SANGER: Inhibition of human MZ2-MEL cell growth in a cell viability assay.

[22] = system: NCI-H1623; assay type: functional, cell-based, Homo sapiens; settings: Homo sapiens, NCI-H1623;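 further: cell viability assay used as the read-out for growth inhibition of NCI-H1623 cells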
Description: SANGER: Inhibition of human NCI-H1623 cell growth in a cell viability assay.

[23] = system: NCI-H1993; assay type: functional, cell-based, Homo sapiens; settings: Homo sapiens, NCI-H1993;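 further: growth inhibition of the cancer cell line, assessed with a cell viability assay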
Description: SANGER: Inhibition of human NCI-H1993 cell growth in a cell viability assay.

[24] = system: NCI-H226; assay type: functional, cell-based, Homo sapiens; settings: Homo sapiens, NCI-H226;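 further: cell viability read-out used to gauge growth inhibition of the cells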
Description: SANGER: Inhibition of human NCI-H226 cell growth in a cell viability assay.

[25] = system: NCI-H661; assay type: functional, cell-based, Homo sapiens; settings: Homo sapiens, NCI-H661;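 further: cell viability assay read-out, IC50 being the concentration that inhibits growth of the cells by half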
Description: SANGER: Inhibition of human NCI-H661 cell growth in a cell viability assay.

[26] = system: NCI-H82; assay type: functional, cell-based; settings: Homo sapiens;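 further: growth inhibition of NCI-H82 cells, measured with a cell viability readout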
Description: SANGER: Inhibition of human NCI-H82 cell growth in a cell viability assay.

[27] = system: SNU1; assay type: functional, cell-based; settings: Homo sapiens;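 further: growth inhibition of human NCI-SNU-1 cells, measured with a cell viability assay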
Description: SANGER: Inhibition of human NCI-SNU-1 cell growth in a cell viability assay.

[28] = system: NUGC-3; assay type: functional, cell-based, Homo sapiens; settings: Homo sapiens, NUGC-3;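 further: growth inhibition of human NUGC-3 cells, read out with a cell viability assay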
Description: SANGER: Inhibition of human NUGC-3 cell growth in a cell viability assay.

[29] = system: OVCAR-3; assay type: functional, cell-based, Homo sapiens; settings: Homo sapiens, OVCAR-3;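 further: growth inhibition of human OVCAR-3 cells, determined by a cell viability assay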
Description: SANGER: Inhibition of human OVCAR-3 cell growth in a cell viability assay.

[30] = system: RCC10RGB; assay type: functional, cell-based, Homo sapiens; settings: Homo sapiens, RCC10RGB;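 further: growth inhibition of human RCC10RGB cells, read out by a cell viability assay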
Description: SANGER: Inhibition of human RCC10RGB cell growth in a cell viability assay.

[31] = system: SBC-5; assay type: functional, cell-based, Homo sapiens; settings: Homo sapiens, SBC-5;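 further: cell viability assay read-out, IC50 is the concentration that inhibits growth of the cells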
Description: SANGER: Inhibition of human SBC-5 cell growth in a cell viability assay.

[32] = system: SCH; assay type: functional, cell-based, Homo sapiens; settings: Homo sapiens, SCH;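 further: growth inhibition of human SCH cells, read out in a cell viability assay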
Description: SANGER: Inhibition of human SCH cell growth in a cell viability assay.

[33] = system: SJSA-1; assay type: functional, cell-based, Homo sapiens; settings: Homo sapiens, SJSA-1;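 further: growth inhibition of human SJSA-1 cells, read out through a cell viability measurement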
Description: SANGER: Inhibition of human SJSA-1 cell growth in a cell viability assay.

[34] = system: SK-MEL-2; assay type: functional, cell-based, Homo sapiens; settings: Homo sapiens, SK-MEL-2;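 further: growth inhibition of human SK-MEL-2 cells measured with a cell viability assay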
Description: SANGER: Inhibition of human SK-MEL-2 cell growth in a cell viability assay.

[35] = system: SNB-75; assay type: functional, cell-based, Homo sapiens; settings: Homo sapiens, SNB-75;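 further: cell viability assay measuring growth inhibition of human SNB-75 cells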
Description: SANGER: Inhibition of human SNB75 cell growth in a cell viability assay.

[36] = system: SW13; assay type: functional, cell-based, Homo sapiens; settings: Homo sapiens, SW13;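 further: IC50 is inhibition of SW13 cell growth, read out with a cell viability assay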
Description: SANGER: Inhibition of human SW13 cell growth in a cell viability assay.

[37] = system: SW1573; assay type: functional, cell-based, Homo sapiens; settings: Homo sapiens, SW1573;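 further: growth inhibition of SW1573 cells, read out with a cell viability assay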
Description: SANGER: Inhibition of human SW1573 cell growth in a cell viability assay.

[38] = system: SW1990; assay type: functional, cell-based, Homo sapiens; settings: Homo sapiens, SW1990;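 further: cell growth inhibition determined with a viability assay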
Description: SANGER: Inhibition of human SW1990 cell growth in a cell viability assay.

[39] = system: TCC-SUP; assay type: functional, cell-based, Homo sapiens; settings: Homo sapiens, TCC-SUP;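 further: growth inhibition of TCC-SUP cells, read out with a cell viability assay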
Description: SANGER: Inhibition of human TCCSUP cell growth in a cell viability assay.

[40] = system: BFTC-909; assay type: functional, cell-based, Homo sapiens; settings: Homo sapiens, BFTC-909
Description: SANGER: Inhibition of human BFTC-909 cell growth in a cell viability assay.

[41] = system: BV-173; assay type: functional, cell-based; settings: Homo sapiens
Description: SANGER: Inhibition of human BV-173 cell growth in a cell viability assay.

[42] = system: C32; assay type: functional, cell-based, Homo sapiens; settings: Homo sapiens, C32;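 further: cell viability assay, with IC50 reflecting inhibition of C32 cell growth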
Description: SANGER: Inhibition of human C32 cell growth in a cell viability assay.

[43] = system: CAL-54; assay type: functional, cell-based, Homo sapiens; settings: Homo sapiens, CAL-54;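 further: growth inhibition of CAL-54 cells, read out by a viability measurement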
Description: SANGER: Inhibition of human CAL-54 cell growth in a cell viability assay.

[44] = system: VM-CUB-1; assay type: functional, cell-based; settings: Homo sapiens;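 further: cell viability assay measuring growth inhibition of the human VM-CUB-1 cell line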
Description: SANGER: Inhibition of human VM-CUB-1 cell growth in a cell viability assay.

[45] = system: VMRC-RCZ; assay type: functional, cell-based; settings: Homo sapiens;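 further: growth inhibition measured with a cell viability assay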
Description: SANGER: Inhibition of human VMRC-RCZ cell growth in a cell viability assay.

[46] = system: no-10; assay type: functional, cell-based, Homo sapiens; settings: Homo sapiens;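 further: growth inhibition of no-10 cells, read out with a cell viability assay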
Description: SANGER: Inhibition of human no-10 cell growth in a cell viability assay.

[47] = system: no-11; assay type: functional, cell-based, Homo sapiens; settings: Homo sapiens;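 further: growth inhibition of human NO-11 cells, read out with a cell viability assay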
Description: SANGER: Inhibition of human no-11 cell growth in a cell viability assay.

[48] = system: CHL-1; assay type: functional, cell-based, Homo sapiens; settings: Homo sapiens, CHL-1;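 further: cell growth inhibition, read out with a cell viability assay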
Description: SANGER: Inhibition of human CHL-1 cell growth in a cell viability assay.

[49] = system: CHP-212; assay type: functional, cell-based, Homo sapiens; settings: Homo sapiens, CHP-212
Description: SANGER: Inhibition of human CHP-212 cell growth in a cell viability assay.

SMILES: CN(Cc1cnc2nc(N)nc(N)c2n1)c1ccc(C(=O)N[C@@H](CCC(=O)O)C(=O)O)cc1 [METHOTREXATE]
- IC50 [1]: > 200 nM
- IC50 [2]: > 200 nM
- IC50 [3]: 79.5 nM
- IC50 [4]: 148 nM
- IC50 [5]: > 200 nM
- IC50 [6]: > 200 nM
- IC50 [7]: > 200 nM
- IC50 [8]: > 200 nM
- IC50 [9]: > 200 nM
- IC50 [10]: > 200 nM
- IC50 [11]: 164 nM
- IC50 [12]: 115 nM
- IC50 [13]: > 200 nM
- IC50 [14]: > 200 nM
- IC50 [15]: > 200 nM
- IC50 [16]: > 200 nM
- IC50 [17]: > 200 nM
- IC50 [18]: > 200 nM
- IC50 [19]: > 200 nM
- IC50 [20]: 13.2 nM
- IC50 [21]: > 200 nM
- IC50 [22]: > 200 nM
- IC50 [23]: > 200 nM
- IC50 [24]: > 200 nM
- IC50 [25]: > 200 nM
- IC50 [26]: > 200 nM
- IC50 [27]: 7.51 nM
- IC50 [28]: > 200 nM
- IC50 [29]: > 200 nM
- IC50 [30]: > 200 nM
- IC50 [31]: 69.4 nM
- IC50 [32]: > 200 nM
- IC50 [33]: > 200 nM
- IC50 [34]: > 200 nM
- IC50 [35]: > 200 nM
- IC50 [36]: > 200 nM
- IC50 [37]: > 200 nM
- IC50 [38]: > 200 nM
- IC50 [39]: > 200 nM
- IC50 [40]: > 200 nM
- IC50 [41]: 6.35 nM
- IC50 [42]: > 200 nM
- IC50 [43]: > 200 nM
- IC50 [44]: > 200 nM
- IC50 [45]: > 200 nM
- IC50 [46]: > 200 nM
- IC50 [47]: > 200 nM
- IC50 [48]: > 200 nM
- IC50 [49]: > 200 nM

SMILES: Cn1cc(C2=C(c3ccc(Cl)cc3Cl)C(=O)NC2=O)c2ccccc21 [SB-216763]
- IC50 [1]: > 10000 nM
- IC50 [2]: > 10000 nM
- IC50 [3]: > 10000 nM
- IC50 [4]: > 10000 nM
- IC50 [5]: > 10000 nM
- IC50 [6]: > 10000 nM
- IC50 [7]: > 10000 nM
- IC50 [8]: > 10000 nM
- IC50 [9]: > 10000 nM
- IC50 [10]: > 10000 nM
- IC50 [11]: > 10000 nM
- IC50 [12]: > 10000 nM
- IC50 [13]: > 10000 nM
- IC50 [14]: 6430 nM
- IC50 [15]: > 10000 nM
- IC50 [16]: > 10000 nM
- IC50 [17]: > 10000 nM
- IC50 [18]: > 10000 nM
- IC50 [19]: > 10000 nM
- IC50 [20]: > 10000 nM
- IC50 [21]: > 10000 nM
- IC50 [22]: > 10000 nM
- IC50 [23]: 8370 nM
- IC50 [24]: > 10000 nM
- IC50 [25]: > 10000 nM
- IC50 [26]: > 10000 nM
- IC50 [27]: > 10000 nM
- IC50 [28]: > 10000 nM
- IC50 [29]: > 10000 nM
- IC50 [30]: > 10000 nM
- IC50 [31]: > 10000 nM
- IC50 [32]: > 10000 nM
- IC50 [33]: > 10000 nM
- IC50 [34]: > 10000 nM
- IC50 [35]: > 10000 nM
- IC50 [36]: > 10000 nM
- IC50 [37]: > 10000 nM
- IC50 [38]: > 10000 nM
- IC50 [39]: > 10000 nM
- IC50 [40]: > 10000 nM
- IC50 [41]: > 10000 nM
- IC50 [42]: > 10000 nM
- IC50 [43]: > 10000 nM
- IC50 [44]: > 10000 nM
- IC50 [45]: > 10000 nM
- IC50 [46]: > 10000 nM
- IC50 [47]: > 10000 nM
- IC50 [48]: > 10000 nM
- IC50 [49]: > 10000 nM
